Reference: DBAASP
Converted amounts (≈) assume the structure as drawn.

Experiments:
Assay in all cases: ≥ marks a high value that may be exact or a test limit, other limits are often not marked, values filed in µg/mL are converted to µM
[1] = test system: Pseudomonas aeruginosa ATCC 10148
[2] = test system: Staphylococcus aureus ATCC 6538P
Streptococcus pyogenes = test system: Streptococcus pyogenes
[3] = test system: Escherichia coli ATCC 25922
[4] = test system: Escherichia coli ATCC 9723H
Escherichia coli NDM = test system: Escherichia coli NDM
[5] = test system: Escherichia coli O157:H7 ATCC 43895
[6] = test system: Malassezia furfur KCTC 7744
[7] = test system: Staphylococcus aureus ATCC 25923
[8] = test system: Vibrio vulnificus ATCC 29307
[9] = test system: Candida albicans ATCC 90028
[10] = test system: Enterococcus faecium ATCC 29212
[11] = test system: Trichosporon beigelii KCTC 7707
[12] = test system: Pseudomonas aeruginosa ATCC 27853
[13] = test system: Streptococcus mutans KCTC 3065
[14] = test system: Staphylococcus epidermidis ATCC 1114
Staphylococcus aureus MR = test system: Staphylococcus aureus MR
[15] = test system: Leuconostoc mesenteroides ATCC 1059
[16] = test system: Bacillus cereus ATCC 1015
[17] = test system: Staphylococcus aureus VRSA1
[18] = test system: Acinetobacter baumannii ATCC 19606
[19] = test system: Staphylococcus aureus NRS 17
[20] = test system: Klebsiella pneumoniae ATCC BAA-2146
[21] = test system: Staphylococcus aureus VRSA10
[22] = test system: Pseudomonas aeruginosa FADDI-PA070
[23] = test system: Staphylococcus aureus ATCC 43300
[24] = test system: Staphylococcus aureus NRS 1
[25] = test system: Klebsiella pneumoniae ATCC 700603
[26] = test system: Streptococcus pneumoniae ATCC 700677
[27] = test system: Cutibacterium acnes PCM 2400
[28] = test system: Staphylococcus epidermidis ATCC 12228
[29] = test system: Cutibacterium acnes PCM 2334
[30] = test system: Streptococcus parauberis KSP 28
[31] = test system: Streptococcus parauberis PH0710
[32] = test system: Vibrio harveyi ATCC 14126
[33] = test system: Vibrio alginolyticus KCCM 2928
[34] = test system: Vibrio anguillarum TR14001NF
[35] = test system: Vibrio campbellii KCCM 40684
[36] = test system: Vibrio ordalii KCCM 41669
[37] = test system: Streptococcus iniae FP5228
[38] = test system: Edwardsiella piscicida FSW 910410
Bacillus subtilis 168 HT = test system: Bacillus subtilis 168 HT
[39] = test system: Escherichia coli K12 MG1655
[40] = test system: Staphylococcus haemolyticus 527
[41] = test system: Staphylococcus aureus ST88

CC[C@H](C)[C@H](NC(=O)[C@@H](NC(=O)[C@@H]1CCCN1C(=O)[C@H](Cc1ccccc1)NC(=O)[C@@H](N)Cc1ccccc1)[C@@H](C)CC)C(=O)N[C@@H](C)C(=O)N[C@@H](CCCN=C(N)N)C(=O)N[C@@H](CC(C)C)C(=O)N[C@@H](C)C(=O)N[C@@H](C)C(=O)N[C@@H](CCCCN)C(=O)N[C@H](C(=O)N[C@H](C(=O)N1CCC[C@H]1C(=O)N[C@@H](CO)C(=O)N[C@@H](CC(C)C)C(=O)N[C@H](C(=O)N[C@@H](CS)C(=O)N[C@@H](C)C(=O)N[C@H](C(=O)N[C@H](C(=O)N[C@@H](CCCCN)C(=O)N[C@@H](CCCCN)C(=O)N[C@@H](CS)C(=O)O)[C@@H](C)O)C(C)C)C(C)C)[C@@H](C)CC)C(C)C [FFPIIARLAAKVIPSLVCAVTKKC]
MIC [1]: ≥ 35 µM
MIC [2]: 1.73 µM (≈ 4.48 µg/mL)
MIC (Streptococcus pyogenes): ≥ 35 µM
MIC [3]: 3.46 µM (≈ 8.97 µg/mL)
MIC [4]: 4.24 µM (≈ 11 µg/mL)
MIC (Escherichia coli NDM): 3.46 µM (≈ 8.97 µg/mL)

CSCC[C@H](NC(=O)CNC(=O)[C@H](C)NC(=O)[C@H](C)N)C(=O)NCC(=O)N[C@@H](Cc1ccccc1)C(=O)N[C@@H](Cc1ccccc1)C(=O)NCC(=O)N[C@@H](C)C(=O)N[C@@H](CCCN=C(N)N)C(N)=O [AAGMGFFGAR]
MIC [5]: 12.7 µM (≈ 12.5 µg/mL)
MIC [6]: ≥ 50.9 µM
MIC [7]: 25.4 µM (≈ 25 µg/mL)
MIC [8]: 25.4 µM (≈ 25 µg/mL)
MIC [9]: 25.4 µM (≈ 25 µg/mL)
MIC [10]: 25.4 µM (≈ 25 µg/mL)
MIC [11]: 12.7 µM (≈ 12.5 µg/mL)
MIC [12]: 12.7 µM (≈ 12.5 µg/mL)
MIC [13]: 12.7 µM (≈ 12.5 µg/mL)

CC[C@H](C)[C@H](NC(=O)[C@H](CC(C)C)NC(=O)[C@@H]1CCCN1C(=O)[C@H](CC(C)C)NC(=O)[C@@H](N)Cc1ccccc1)C(=O)NCC(=O)N[C@@H](CCCCN)C(=O)N[C@@H](CC(C)C)C(=O)N[C@@H](CC(C)C)C(=O)N[C@@H](CO)C(=O)NCC(=O)N[C@@H](CC(C)C)C(=O)N[C@@H](Cc1ccc(O)cc1)C(N)=O [FLPLIGKLLSGLY]
MIC [14]: 20.9 µM (≈ 30 µg/mL)
MIC (Staphylococcus aureus MR): 20.9 µM (≈ 30 µg/mL)
MIC [15]: 6.97 µM (≈ 9.99 µg/mL)
MIC [16]: 20.9 µM (≈ 30 µg/mL)

CC[C@H](C)[C@H](NC(=O)[C@@H](N)CC(C)C)C(=O)NCC(=O)N[C@@H](CC(C)C)C(=O)N[C@H](C(=O)N[C@@H](CO)C(=O)N[C@@H](CCCCN)C(=O)NCC(=O)N[C@H](C(=O)N[C@@H](CO)C(=O)N[C@H](C(=O)N[C@@H](CC(C)C)C(=O)N[C@H](C(=O)N[C@@H](CCCCN)C(=O)N[C@H](C(=O)N[C@H](C(=O)N[C@@H](CO)C(=O)N[C@@H](CCCCN)C(=O)N[C@@H](CCCCN)C(=O)N[C@H](C(=O)N[C@@H](CC(C)C)C(=O)N[C@@H](CCCCN)C(=O)N[C@@H](CCC(N)=O)C(N)=O)C(C)C)C(C)C)[C@@H](C)O)C(C)C)C(C)C)[C@@H](C)O)C(C)C [LIGLVSKGTSVLVKTVSKKVLKQ]
MIC [3]: > 9.6 µM
MIC [17]: 9.6 µM (≈ 23.3 µg/mL)
MIC [18]: > 9.6 µM
MIC [19]: 9.6 µM (≈ 23.3 µg/mL)
MIC [20]: 9.6 µM (≈ 23.3 µg/mL)
MIC [21]: 9.6 µM (≈ 23.3 µg/mL)
MIC [22]: 9.6 µM (≈ 23.3 µg/mL)
MIC [23]: > 9.6 µM
MIC [24]: 9.6 µM (≈ 23.3 µg/mL)
MIC [25]: > 9.6 µM
MIC [12]: > 9.6 µM
MIC [26]: 9.6 µM (≈ 23.3 µg/mL)

CC(C)C[C@H](NC(=O)[C@H](CO)NC(=O)[C@H](CCCCN)NC(=O)[C@H](CO)NC(=O)[C@H](C)NC(=O)[C@H](Cc1ccccc1)NC(=O)[C@H](Cc1ccccc1)NC(=O)[C@H](CCCN=C(N)N)NC(=O)CNC(=O)[C@H](Cc1ccc(O)cc1)NC(=O)[C@H](CC(=O)O)NC(=O)[C@H](CS)NC(=O)[C@H](CCCN=C(N)N)NC(=O)[C@@H](N)CC(C)C)C(=O)N[C@@H](Cc1ccc(O)cc1)C(=O)N[C@@H](CC(=O)O)C(=O)N1CCC[C@H]1C(=O)N[C@@H](CC(C)C)C(=O)N[C@@H](CCCCN)C(=O)N[C@@H](CCCCN)C(=O)N[C@@H](CCCN=C(N)N)C(=O)N[C@@H](CCCN=C(N)N)C(=O)O [LRCDYGRFFASKSLYDPLKKRR]
MIC [3]: > 735 µM
MIC [27]: 23 µM (≈ 62.5 µg/mL)
MIC [7]: 91.9 µM (≈ 250 µg/mL)
MIC [28]: 91.9 µM (≈ 250 µg/mL)
MIC [29]: 11.5 µM (≈ 31.3 µg/mL)
MIC [12]: > 735 µM

CC(C)C[C@H](NC(=O)[C@H](Cc1cnc[nH]1)NC(=O)CNC(=O)[C@@H]1CCCN1C(=O)[C@@H](NC(=O)[C@H](CCC(N)=O)NC(=O)[C@H](Cc1cnc[nH]1)NC(=O)[C@H](CC(C)C)NC(=O)[C@@H](NC(=O)[C@H](CCCCN)NC(=O)[C@@H]1CCCN1C(=O)[C@H](CC(C)C)NC(=O)[C@@H](N)Cc1ccc(O)cc1)C(C)C)[C@@H](C)O)C(=O)N[C@@H](CCCCN)C(=O)N1CCC[C@H]1C(=O)O [YLPKVLHQTPGHLKP]
MIC [30]: ≥ 289 µM
MIC [31]: ≥ 205 µM
MIC [32]: ≥ 51.1 µM
MIC [33]: ≥ 289 µM
MIC [34]: ≥ 289 µM
MIC [35]: ≥ 289 µM
MIC [36]: ≥ 289 µM
MIC [37]: ≥ 51.1 µM
MIC [38]: ≥ 289 µM

CC[C@H](C)[C@H](NC(=O)[C@H](CCCCN)NC(=O)[C@@H](NC(=O)[C@@H](N)Cc1ccccc1)C(C)C)C(=O)N[C@@H](CC(C)C)C(=O)N[C@@H](C)C(=O)N[C@@H](CCCCN)C(=O)N[C@@H](CC(C)C)C(=O)N[C@H](C(=O)N[C@@H](CC(N)=O)C(=O)N[C@@H](Cc1ccc(O)cc1)C(=O)N[C@@H](C)C(=O)N[C@@H](CCCCN)C(=O)N[C@@H](CC(N)=O)C(=O)O)C(C)C [FVKILAKLVNYAKN]
MIC (Bacillus subtilis 168 HT): 19.8 µM (≈ 32.1 µg/mL)
MIC [39]: ≥ 79 µM
MIC [40]: ≥ 100 µM
MIC [41]: ≥ 100 µM
